Source: publication PMC7774954, “Interactomic affinity profiling by holdup assay: Acetylation and distal residues impact the PDZome-binding specificity of PTEN phosphatase” (PLoS ONE, 2020)
*1 amine or outer side, *2 acyl side, *3 side chain or, on linkers, in order; H or OH if unused. Where a SMILES comes first, the peptide text is derived from it. The star is where a group is joined. X1 = O=C(CCCC[C@@H]1SC[C@@H]2NC(=O)N[C@@H]21)NCCCOCCOCCOCCCN*; Suc = O=C(CCC(=O)[*:2])[*:1]

Legend:
PTPN13 PDZ 2 = target: T1, PTPN13 PDZ 2 (Homo sapiens, UniProt Q12923); experiment: Holdup assay, PTPN13-2; format: binding; conditions: for BI: PDZ domain PTPN13-2
T1 construct: made in house; host or cells: E. coli
T1 sequence (Q12923 1368-1452 limits assumed): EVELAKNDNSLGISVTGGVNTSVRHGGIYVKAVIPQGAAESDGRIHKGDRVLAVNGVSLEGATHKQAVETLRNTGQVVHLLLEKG
Protocol: The holdup assay was performed on a Tecan freedom Evo200 robot with 384-well plates in singlicate for the three 11-mer PTEN variants and the 13-mer PTEN peptide as described in [31, 32]. Briefly, prior to interaction assay, 2.5 μL of streptavidin resin was saturated in each well with 20 μL of biotinylated PBM peptides (42 μM) and then washed twice with an excess of free biotin, while the reference resin was incubated only with biotin. Right before the holdup experiment, the PDZ library was spiked with an internal standard of lysozyme. Then, the biotin- or PBM-saturated resin was incubated, each in a distinct well of a 384-well plate, with complete cell lysates diluted so that the concentration of the tag-PDZ present in the crude extract is adjusted at 4 μM. After a sufficient time to reach complex equilibrium (15 min.), a fast and mild filtration step is performed and the tag-PDZ concentrations were measured by capillary electrophoresis instrument (LabChip GXII, PerkinElmer, Massachusets, USA). Standard markers were used to convert migration time into molecular weight on the LabChip software and inappropriate molecular weight markers were corrected or excluded.
For filtered data, the BI was extracted with the following equation (Eq 1) that estimates the depleted fraction after superimposition of the sample and reference electropherograms: BI=Iref−Ilig/Iref (1) where Iref and Ilig are the intensities of the tag-PDZ peaks measured, for each PDZ domain/PBM peptide interaction pair, in the biotin reference and the PBM electropherograms, respectively.
BIs were transformed into dissociation constants (KD) using the following formula: KD=([PDZtot]−BI·[PDZtot])·([PBMtot]−BI·[PDZtot])/BI·[PDZtot] (2) where [PDZtot] and [PBMtot] correspond to the total concentrations of the PDZ domain (usually around 4 μM) and the PBM peptide used during the assay. Since the PBMtot concentration in the resin during the holdup assay parameter may differ from one peptide to another and remains unknown, it is impossible to directly convert BI values into KD constants. We systematically determined the KD constants for a subset of PDZ/PBM pairs by competitive FP. […] For each PBM, the average peptide concentration was calculated after outlier rejection based on the absolute distances from the median as compared to three times the standard deviation (3σ rule), with never more than 2 values rejected.

ARHGEF11-1 = target: T2, ARHGEF11-1 (Homo sapiens, UniProt O15085); experiment: Holdup assay, ARHGEF11-1; format: binding
T2 sequence (O15085 47-126): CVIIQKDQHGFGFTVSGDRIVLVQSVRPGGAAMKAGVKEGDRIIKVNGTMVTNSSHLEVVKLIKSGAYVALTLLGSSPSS

DFNB31-1 = target: T3, DFNB31-1 (Homo sapiens, UniProt Q9P202); experiment: Holdup assay, DFNB31-1; format: binding
T3 sequence (Q9P202 140-223): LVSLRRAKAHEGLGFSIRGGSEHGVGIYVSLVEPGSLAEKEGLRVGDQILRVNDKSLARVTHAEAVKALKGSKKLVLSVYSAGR

DFNB31-2 = experiment: Holdup assay, DFNB31-2; format: binding, human
DFNB31-3 = target: T4, DFNB31-3 (Homo sapiens, UniProt Q9P202); experiment: Holdup assay, DFNB31-3; format: binding
T4 sequence (Q9P202 1-907): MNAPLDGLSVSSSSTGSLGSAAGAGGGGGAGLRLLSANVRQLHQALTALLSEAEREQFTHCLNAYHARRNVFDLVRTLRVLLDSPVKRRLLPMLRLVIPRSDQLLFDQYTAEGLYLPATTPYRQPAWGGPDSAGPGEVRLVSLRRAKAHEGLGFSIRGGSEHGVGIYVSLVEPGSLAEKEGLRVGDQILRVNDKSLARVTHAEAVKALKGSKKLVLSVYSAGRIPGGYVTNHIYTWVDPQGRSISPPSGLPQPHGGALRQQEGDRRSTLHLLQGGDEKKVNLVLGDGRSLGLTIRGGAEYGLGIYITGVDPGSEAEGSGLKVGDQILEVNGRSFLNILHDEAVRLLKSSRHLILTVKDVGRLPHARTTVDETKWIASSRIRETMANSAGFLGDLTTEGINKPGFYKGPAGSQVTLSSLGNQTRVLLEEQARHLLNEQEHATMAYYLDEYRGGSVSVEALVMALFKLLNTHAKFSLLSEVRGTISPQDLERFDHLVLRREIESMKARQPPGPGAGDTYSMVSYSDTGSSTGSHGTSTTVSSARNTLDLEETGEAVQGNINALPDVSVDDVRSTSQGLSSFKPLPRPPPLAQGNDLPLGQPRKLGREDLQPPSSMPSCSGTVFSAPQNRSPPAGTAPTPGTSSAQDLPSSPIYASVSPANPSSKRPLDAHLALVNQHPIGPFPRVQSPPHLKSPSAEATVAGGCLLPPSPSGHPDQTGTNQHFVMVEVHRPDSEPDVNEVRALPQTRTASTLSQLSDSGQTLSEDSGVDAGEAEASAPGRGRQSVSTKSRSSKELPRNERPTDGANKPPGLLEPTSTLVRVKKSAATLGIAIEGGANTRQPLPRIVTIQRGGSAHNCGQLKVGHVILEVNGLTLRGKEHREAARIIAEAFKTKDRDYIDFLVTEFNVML

DLG3-1 = experiment: Holdup assay, DLG3-1; format: binding, human
DVL3-1 = experiment: Holdup assay, DVL3-1; format: binding, human
GOPC-1 = GOPC-1 (Homo sapiens, UniProt Q9HD26); experiment: Holdup assay, GOPC-1; format: binding
HTRA3-1 = experiment: Holdup assay, HTRA3-1; format: binding, human
IL16-1 = experiment: Holdup assay, IL16-1; format: binding, human
IL16-2 = experiment: Holdup assay, IL16-2; format: binding, human
MAGIX-1 = experiment: Holdup assay, MAGIX-1; format: binding, human
MLLT4-1 = experiment: Holdup assay, MLLT4-1; format: binding, human

SMILES	BI (PTPN13 PDZ 2)	BI (ARHGEF11-1)	BI (DFNB31-1)	BI (DFNB31-2)	LogKD (DFNB31-2)	BI (DFNB31-3)	LogKD (DFNB31-3)	BI (DLG3-1)	LogKD (DLG3-1)	BI (DVL3-1)	LogKD (DVL3-1)	BI (GOPC-1)	Kd (GOPC-1)	BI (HTRA3-1)	LogKD (HTRA3-1)	BI (IL16-1)	LogKD (IL16-1)	BI (IL16-2)	LogKD (IL16-2)	BI (MAGIX-1)	also measured
CC[C@H](C)[C@H](NC(=O)[C@H](CCC(N)=O)NC(=O)[C@@H](NC(=O)[C@H](Cc1c[nH]cn1)NC(=O)[C@H](CCC(N)=O)NC(=O)[C@H](CC(=O)O)NC(=O)[C@H](CCC(=O)O)NC(=O)[C@H](CC(=O)O)NC(=O)CCC(=O)NCCCOCCOCCOCCCNC(=O)CCCC[C@@H]1SC[C@@H]2NC(=O)N[C@@H]21)[C@@H](C)O)C(=O)N[C@H](C(=O)N[C@@H](CCCCN)C(=O)N[C@H](C(=O)O)C(C)C)[C@@H](C)O [PTEN_11]	0.184	0.026	0.108	-0.03	3.519	0.089	3.519	0	3.519	0.012	3.519	0.26	93.8 µM	0.05	3.519	-0.017	3.519	-0.132	3.519	0.014	LogKD (ARHGEF11-1): 3.519; LogKD (MAGIX-1): 3.519; BI (MLLT4-1): -0.038; LogKD (MLLT4-1): 3.519
CC[C@H](C)[C@H](NC(=O)[C@H](CCC(N)=O)NC(=O)[C@@H](NC(=O)[C@H](Cc1c[nH]cn1)NC(=O)[C@H](CCC(N)=O)NC(=O)[C@H](CC(=O)O)NC(=O)[C@H](CCC(=O)O)NC(=O)[C@H](CC(=O)O)NC(=O)[C@H](Cc1ccccc1)NC(=O)[C@@H]1CCCN1C(=O)CCC(=O)NCCCOCCOCCOCCCNC(=O)CCCC[C@@H]1SC[C@@H]2NC(=O)N[C@@H]21)[C@@H](C)O)C(=O)N[C@H](C(=O)N[C@@H](CCCCN)C(=O)N[C@H](C(=O)O)C(C)C)[C@@H](C)O [PTEN_13] ({X1-Suc}-PFDEDQHTQITKV-OH)	0.482	0.114	0.145	0.036		0.061	3.826	-0.03		-0.003		0.199	65.2 µM	-0.059		0.018		-0.025		0.049	Kd (PTPN13 PDZ 2): 16.2 µM; BI (MLLT4-1): 0.007
CC[C@H](C)[C@H](NC(=O)[C@H](CCC(N)=O)NC(=O)[C@@H](NC(=O)[C@H](Cc1c[nH]cn1)NC(=O)[C@H](CCC(N)=O)NC(=O)[C@H](CC(=O)O)NC(=O)[C@H](CCC(=O)O)NC(=O)[C@H](CC(=O)O)NC(=O)CCC(=O)NCCCOCCOCCOCCCNC(=O)CCCC[C@@H]1SC[C@@H]2NC(=O)N[C@@H]21)[C@@H](C)O)C(=O)N[C@H](C(=O)N[C@@H](CCCCNC(C)=O)C(=O)N[C@H](C(=O)O)C(C)C)[C@@H](C)O [PTEN_Ac]	0.044	0.428	0.09	-0.091	3.605	0.275		0.013	3.605	-0.002	3.605	0.404	38.9 µM	0.011	3.605	0.039	3.605	-0.157	3.605	-0.034	Kd (ARHGEF11-1): 35.1 µM; LogKD (DFNB31-1): 3.605; Kd (DFNB31-3): 70.9 µM; LogKD (MAGIX-1): 3.605
CC[C@H](C)[C@H](NC(=O)[C@H](CCC(N)=O)NC(=O)[C@@H](NC(=O)[C@H](Cc1c[nH]cn1)NC(=O)[C@H](CCC(N)=O)NC(=O)[C@H](CC(=O)O)NC(=O)[C@H](CCC(=O)O)NC(=O)[C@H](CC(=O)O)NC(=O)CCC(=O)NCCCOCCOCCOCCCNC(=O)CCCC[C@@H]1SC[C@@H]2NC(=O)N[C@@H]21)[C@@H](C)O)C(=O)N[C@H](C(=O)N[C@@H](CCCNC(=N)N)C(=O)N[C@H](C(=O)O)C(C)C)[C@@H](C)O [PTEN_KR] ({X1-Suc}-DEDQHTQITRV-OH)	0.138	0.18	0.118	-0.046	3.655	-0.014	3.655	0.066	3.655	0.037	3.655	0.45	28.4 µM	0.065	3.655	0.06	3.655	-0.114	3.655	0.018	LogKD (MAGIX-1): 3.655; BI (MLLT4-1): 0.021; LogKD (MLLT4-1): 3.655
